Patent publication US9540427B2, “Peptide-based stat inhibitor” (The United States of America, as represented by the …, priority 2007, dated 2017)

Assays:
[1] = tested on: normal mammary epithelial cells MCF-10A; experiment: MTT assay of growth and viability, MCF-10A; format: cell-based; conditions: escalating doses
Experimental: Three breast cancer cell lines (MDA-MB-231, T47D, and MDA-MB-435) and normal breast epithelial (MCF-10A) were treated with escalating doses of STAT3-Hel2A-2 (SEQ ID NO: 20). Cell proliferation and cell death were estimated by MTT assay.

[2] = tested on: normal mouse embryonic fibroblasts (MEFs); experiment: Survival of normal mouse embryonic fibroblasts; format: cell-based; conditions: normal MEFs (data not shown)
From the text: (§1) Furthermore, survival of normal mouse embryonic fibroblasts (MEFs) and STAT3-deficient MEFs was not affected by treatment with STAT3-Hel2A-2 (data not shown). […] This observation potentially provides a basis for an enhanced therapeutic ratio, based on differential inhibitor effects

STAT3-deficient MEFs = experiment: Survival of STAT3-deficient MEFs; format: cell-based, mouse; conditions: STAT3-deficient MEFs (data not shown)
From the text: as §1

SMILES: CCCC[C@H](NC(=O)[C@H](CCCNC(=N)N)NC(=O)[C@H](CCCNC(=N)N)NC(=O)[C@H](CC(N)=O)NC(=O)[C@@H]1CCCN1C(=O)[C@H](Cc1ccccc1)NC(=O)[C@H](Cc1c[nH]c2ccccc12)NC(=O)[C@@H](NC(=O)[C@H](CCCCN)NC(=O)[C@@H](NC(=O)[C@H](CCC(N)=O)NC(=O)[C@H](CCCNC(=N)N)NC(=O)[C@H](Cc1ccc(O)cc1)NC(=O)[C@H](CC(C)C)NC(=O)[C@H](CCCCN)NC(=O)[C@H](Cc1c[nH]cn1)NC(=O)[C@H](CC(C)C)NC(=O)[C@H](CCC(N)=O)NC(=O)[C@H](CCC(=O)O)NC(=O)[C@H](CC(C)C)NC(=O)[C@H](Cc1ccc(O)cc1)NC(=O)[C@H](CCCNC(=N)N)NC(=O)[C@@H](NC(=O)[C@H](CC(=O)O)NC(=O)[C@@H](N)CC(C)C)[C@@H](C)O)[C@@H](C)CC)[C@@H](C)CC)C(=O)N[C@@H](CCCCN)C(=O)N[C@@H](Cc1c[nH]c2ccccc12)C(=O)N[C@@H](CCCCN)C(=O)N[C@@H](CCCCN)C(N)=O [Hel2A-2-Pen]
- Growth and viability of normal cells [1]: not altered significantly
- Survival of normal cells [2]: not affected
- Survival of STAT3-deficient cells (STAT3-deficient MEFs): not affected
